# Experimental data: ChEMBL document CHEMBL3870303, “Substituted conformationally restricted guanidine derivatives: Probing the α2-adrenoceptors' binding pocket” (Eur J Med Chem, 2016)
# Activity calls are given as the source filed them. The calls are words filed in the database; no cut-off is given here.
# Biological target: T1, Adrenergic receptor alpha-2 (Homo sapiens, UniProt P08913+P18825+P18089)
# T1 sequence (P08913 whole entry): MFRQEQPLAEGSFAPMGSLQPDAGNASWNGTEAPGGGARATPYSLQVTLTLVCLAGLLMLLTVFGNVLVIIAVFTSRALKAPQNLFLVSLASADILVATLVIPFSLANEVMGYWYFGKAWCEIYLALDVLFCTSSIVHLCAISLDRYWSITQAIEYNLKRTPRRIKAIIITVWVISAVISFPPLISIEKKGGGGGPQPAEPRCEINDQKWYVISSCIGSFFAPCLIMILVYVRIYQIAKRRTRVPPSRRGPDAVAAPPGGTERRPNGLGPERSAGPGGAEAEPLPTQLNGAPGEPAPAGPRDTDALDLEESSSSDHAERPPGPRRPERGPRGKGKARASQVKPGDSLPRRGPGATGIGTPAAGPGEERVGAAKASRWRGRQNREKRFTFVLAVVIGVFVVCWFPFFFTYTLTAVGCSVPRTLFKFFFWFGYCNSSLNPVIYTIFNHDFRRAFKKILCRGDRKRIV
# T1 sequence (P18825 whole entry): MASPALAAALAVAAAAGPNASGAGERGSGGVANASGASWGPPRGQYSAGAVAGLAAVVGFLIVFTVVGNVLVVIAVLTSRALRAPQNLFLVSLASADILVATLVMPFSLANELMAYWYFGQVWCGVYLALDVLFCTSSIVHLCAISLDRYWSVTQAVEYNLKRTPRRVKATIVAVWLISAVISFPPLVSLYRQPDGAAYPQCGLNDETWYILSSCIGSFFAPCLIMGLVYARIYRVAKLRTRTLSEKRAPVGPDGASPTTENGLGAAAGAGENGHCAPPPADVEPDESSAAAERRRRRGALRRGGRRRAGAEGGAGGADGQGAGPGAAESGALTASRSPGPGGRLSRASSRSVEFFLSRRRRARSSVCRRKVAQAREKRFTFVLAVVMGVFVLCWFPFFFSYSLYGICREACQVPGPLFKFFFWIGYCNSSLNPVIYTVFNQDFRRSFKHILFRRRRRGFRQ
# T1 sequence (P18089 whole entry): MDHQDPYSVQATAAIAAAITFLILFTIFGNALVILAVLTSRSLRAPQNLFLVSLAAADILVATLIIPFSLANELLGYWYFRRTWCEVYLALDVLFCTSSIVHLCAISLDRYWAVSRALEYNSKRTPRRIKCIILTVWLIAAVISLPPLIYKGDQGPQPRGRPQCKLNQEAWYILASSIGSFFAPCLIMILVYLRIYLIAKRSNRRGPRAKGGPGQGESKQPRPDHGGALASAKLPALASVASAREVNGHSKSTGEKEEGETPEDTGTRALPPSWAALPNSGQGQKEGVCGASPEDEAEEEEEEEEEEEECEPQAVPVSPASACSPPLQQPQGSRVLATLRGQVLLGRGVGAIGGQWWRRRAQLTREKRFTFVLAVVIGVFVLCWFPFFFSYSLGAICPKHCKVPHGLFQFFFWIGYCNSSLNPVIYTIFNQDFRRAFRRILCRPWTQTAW
# Assay: Displacement of [3H]RX821002 from alpha-2 adrenergic receptor in human brain pre-frontal cortex neural membranes after 30 mins by liquid scintillation counting method
row,SMILES,pKi
1,CN(C)c1ccc2c(c1)CCN=C(NCc1ccco1)N2,5.36
2,COC1(C2=NCCN2)COc2ccccc2O1 (stereo not drawn),8.85
3,OCCNC1=NCCc2cc3c(cc2N1)OCO3,5.5
4,NC1=NCc2ccccc2N1c1ccccc1,5.85
5,CN(C)c1ccc2c(c1)CCN=C(NCc1ccc3c(c1)OCO3)N2,6.14
6,CCCN1C(NCc2ccccc2)=NCc2cccnc21,5.05
7,CN(C)c1ccc2c(c1)CCN=C(NCCO)N2,4.99
8,CCCN1C(NCc2ccccc2)=NCc2ccccc21,5.29
9,c1ccc(CNC2=NCc3ccccc3N2Cc2ccc3c(c2)OCO3)cc1,6.55
10,CCCN1C(N)=NCc2ccccc21,5.11
11,CCCN1C(N)=NCc2cccnc21,4.99
12,OCCN1C(NCc2ccccc2)=NCc2cccnc21,5.07
13,c1ccc2c(c1)CCN=C(NCc1ccc3c(c1)OCO3)N2,6.64
14,c1ccc(CNC2=NCc3ccccc3N2c2ccccc2)cc1,4.92
15,OCCNC1=NCCc2ccccc2N1,5.81
16,c1ccc(CNC2=NCc3cccnc3N2Cc2ccc3c(c2)OCO3)cc1,5.15

# Biological target: Adrenergic receptor alpha-2 (Homo sapiens) (UniProt P08913+P18825+P18089)
# Assay: Antagonist activity at alpha-2 adrenergic receptor in human brain prefrontal cortex neural membranes assessed as inhibition of [35S]GTPgammaS binding after 120 mins by liquid scintillation counting
# Format: functional, tissue-based
row,SMILES,inhibition
1,c1ccc2c(c1)CCN=C(NCc1ccc3c(c1)OCO3)N2,Active
2,c1ccc(CNC2=NCc3cccnc3N2Cc2ccc3c(c2)OCO3)cc1,Active
